Values of other authors, collected in patent US20170128514A1, “PHARMACEUTICAL COMPOSITION FOR TREATING CARDIO-CEREBROVASCULAR DISEASES AND METHOD FOR PREPARING THE SAME” (priority 2014, published 2017).

Columns and labels:
[1] = system: thrombocytopenia caused by heparin
[2] = system: acute coronary syndrome (ACS); conditions: human, in vivo

hirudin
patients with blood platelets recovered and normal ([1]; 14.4 hrs. after the treatment): 88.7% | bleeding ([1]; in vivo): bleeding only occurs in a dose much larger than the required dose for anti-coagulation | efficacy in treating acute coronary syndrome (ACS) compared with heparin [2]: more significant than the heparin
